Results taken from patent publication US5489609A (Zaidan Hoijn Seisan Kaihatsu Kagaku Kenkyusho, priority 1992, dated 1996).

Columns and labels:
[1] = tested on: Hepatopathy in mice (carbon tetrachloride); test: Anti-hepatitis test: hepatopathy in mice (carbon tetrachloride); assay type: in vivo, ddy strain male mice; settings: for ALT, mean ± S.D. / AST, mean ± S.D.: 200 mg/kg orally 3 h after carbon tetrachloride, blood 24 h after carbon tetrachloride, * p < 0.05; for suppressory activity (hepatopathy in mice): 200 mg/kg orally, in words
Description: A group of 8 ddy strain male mice (weighing about 30 g) kept fasting from the previous day was treated by intraperitoneal injection of 0.5% carbon tetrachloride in olive oil at a dose of 0.6 ml and thereafter allowed free access to food. Three hours after the administration of carbon tetrachloride, the test compound suspended in powdered gum arabic was given to the animals orally at a dose of 200 mg/kg, and blood samples were drawn from the mice under anesthesia with ether through the abdominal descending aorta 24 hours after the administration of carbon tetrachloride. The collected blood was centrifuged at a rate of 3,000 rpm for 15 min, followed by measurement of the activities of aspartate transaminase (AST) and alanine transaminase (ALT) by means of the Lippie method.

[2] = tested on: Stomach injury with hydrochloric acid/ethanol; test: Anti-ulcer test: stomach injury with hydrochloric acid/ethanol; assay type: in vivo, male rats of KBL Wistar strain
Description: The rats were divided into groups each consisting of 8 heads in such a way that their mean body weights were nearly uniform among the groups, treated by oral administration of hydrochloric acid/ethanol (0.15 mole hydrochloric acid solution in 80% ethanol) at a dose of 5 ml/kg body weight and sacrificed through cervical vertebrae dislocation 1 hour after administration. The stomachs were removed and treated with formalin, and individual ulcers formed in the glandular portion of the stomach were measured in length (mm), with the measured ulcer lengths summed for each rat. The test compound was suspended in a 0.5% aqueous solution of sodium carboxymethylcellulose, and the suspension was given to the test group orally at a dose of 10 ml/kg body weight 30 min before administration of hydrochloric acid/ethanol, whereas the vehicle (0.5% aqueous sodium carboxymethyl-cellulose) alone was applied to a control group.

[3] = tested on: Rats of KBL Wistar strain; test: Acute toxicity test; assay type: in vivo; settings: 7 day period
Description: Rats of KBL Wistar strain (weighing about […]), divided into groups each consisting of 3 heads, were treated through oral administration of the test compound suspended in powder gum arabic, followed by observation for any abnormalities over a 7 day period to find the number of dead animals.

acetaldehyde toxicity = test: Protective activity against acetaldehyde toxicity (death rate within 24 hours); assay type: in vivo, Rats; settings: for Death rate / No. of dead animals (n/10): 30 min before acetaldehyde 1,200 mg/kg, 24 h
Description: Rats kept fasting with a supply of drinking water were weighed and divided into groups in such a manner that the mean body weight was uniform among the groups, with each group consisting of 10 heads. The rats were given acetaldehyde orally at a dose of 1,200 mg/kg, and the death rate within 24 hours was determined, wherein the test drug substances were administered orally 30 min before the application of acetaldehyde, with the vehicle (0.5% aqueous sodium carboxymethylcellulose) alone being given to a control group.

[4] = tested on: isolated liver cells of rats; test: Disorder of isolated liver cells (carbon tetrachloride vapor; ALT and AST leached out); assay type: cell-based; settings: for ALT, mean ± S.D. / AST, mean ± S.D.: 37° C., 30 min, * p < 0.05
Description: Isolated liver cells of rats were prepared by means of the Segren's collagenase irrigation method, whereby a liver cell suspension was prepared to a concentration of […]. Into 2 ml of the suspension placed in an Erlenmeyer flask was put a test tube of about 0.5 ml capacity containing a 25% carbon tetrachloride solution in olive oil to saturate the reaction system with carbon tetrachloride vapor, and after the flask was tightly stoppered, preincubation was carried out at 37° C. for 30 min. One ml of a solution of the test compound in Hunk's solution was added to the suspension of liver cells, while 1 ml of Hunk's solution was added to a control. After the reaction was allowed to proceed at 37° C. for 30 min, a specifically determined volume of the reaction solution was pipetted out and immediately centrifuged under 500 g for 30 seconds, and ALT and AST leached out into the supernatant liquid were determined for activity by the Lippie method.

[5] = tested on: Stomach injury through water-immersion constraint stress; test: Anti-ulcer test: stomach injury through water-immersion constraint stress; assay type: in vivo, male rats of KBL Wistar strain
Description: The rats were divided into groups each consisting of 8 heads in such a way that their mean body weights were nearly uniform among the groups, stress-loaded by soaking the animals placed in a stress cage of Univ. of Tokyo type in a water tank at 23° C. up to the xiphoid and then sacrificed through cervical vertebrae dislocation 7.5 hours later. The stomachs were removed and treated with formalin, and individual ulcers formed in the glandular portion of the stomach were measured in length (mm), with the measured ulcer lengths being summed for each rat. The test compound, suspended in a 0.5% aqueous solution of sodium carboxymethylcellulose, was given to the test group orally at a dose of 10 ml/kg body weight 30 min before the water-soaking constraint, whereas the vehicle alone was applied to a control group.

[6] = Pharmacological tests (general statement on anti-hepatitis, liver function and anti-ulcer activity); assay type: in vivo; settings: in words
[7] = 50 mg/kg orally, vs Vehicle No. 1
[8] = conc. of test soln. 0.0125 mg/dl
[9] = conc. of test soln. 0.025 mg/dl

Question: For `N[C@@H](CCC(=O)N[C@@H](CS)C(=O)NCC(=O)O)C(=O)O` [Glutathione], which “ALT, mean ± S.D.” value [1] is on record?
Answer: The value was 12030.2 ± 1204.5 IU.

Question: And the “AST, mean ± S.D.” value [1]?
Answer: Its value is 11423.3 ± 1960.8 IU.

Question: And the “suppressory activity (hepatopathy in mice)” value [1]?
Answer: The value was “none of 2-aminoethanesulfonic acid, glutathione and glycyrrhizin that were used as controls at the same dose developed suppressory activity”.

Question: With `CC1(C)[C@@H](O[C@H]2O[C@H](C(=O)O)[C@@H](O)[C@H](O)[C@H]2O[C@@H]2O[C@H](C(=O)O)[C@@H](O)[C@H](O)[C@H]2O)CC[C@]2(C)[C@H]3C(=O)C=C4[C@@H]5C[C@@](C)(C(=O)O)CC[C@]5(C)CC[C@@]4(C)[C@]3(C)CC[C@@H]12` [Glycyrrhizin] as the compound, how does the “ALT, mean ± S.D.” value [1] read?
Answer: The value was 13362.1 ± 1753.1 IU.

Question: What about the “AST, mean ± S.D.” value [1] of the same compound?
Answer: The value was 12367.6 ± 1102.1 IU.

Question: What about the “suppressory activity (hepatopathy in mice)” value [1] of the same compound?
Answer: Its value is “none of 2-aminoethanesulfonic acid, glutathione and glycyrrhizin that were used as controls at the same dose developed suppressory activity”.

Question: Which results are given for `NCCS(=O)(=O)[O-].NCCS(=O)(=O)[O-].[Zn+2]` [TTZ, Bis(2-aminoethanesulfonic acid)zinc]?
Answer: Incidence of ulcer ([2]; 12.5 mg/kg orally): 8/8; Ulcer coefficient (mm) mean ± S.E. ([2]; 12.5 mg/kg orally): 32.2 ± 4.9 mm; Suppression % ([2]; 12.5 mg/kg orally, vs Vehicle No. 3): 11.8%; Incidence of ulcer ([2]; 25 mg/kg orally): 8/8; Ulcer coefficient (mm) mean ± S.E. ([2]; 25 mg/kg orally): 24.6 ± 8.8 mm; Suppression % ([2]; 25 mg/kg orally, vs Vehicle No. 2): 63.3%; Incidence of ulcer ([2]; 50 mg/kg orally): 5/8; Ulcer coefficient (mm) mean ± S.E. ([2]; 50 mg/kg orally, * P < 0.01): 2.2 ± 1.1 mm; Suppression % [2, 7]: 96.3%; suppressory activity in the antiulcer test ([2]; in words, refers to both anti-ulcer tests): improved suppressory activity in the antiulcer test, as compared with FTZ used as a control; UD50 (mg/kg) (95% C.L.) ([2]; oral, 30 min before hydrochloric acid/ethanol): 22.8 mg/kg; Nd/No (No. of dead animals / total No.) ([3]; 1,250 mg/kg oral): 0/3; Nd/No (No. of dead animals / total No.) ([3]; 2,500 mg/kg oral): 0/3; Nd/No (No. of dead animals / total No.) ([3]; 5,000 mg/kg oral): 0/3; death of animals ([3]; doses up to 5,000 mg/kg oral, in words): did not cause any animal to die; Death rate (acetaldehyde toxicity; 150 mg/kg orally): 30%; No. of dead animals (n/10) (acetaldehyde toxicity; 150 mg/kg orally): 3/10; Death rate (acetaldehyde toxicity; 300 mg/kg orally): 0%; No. of dead animals (n/10) (acetaldehyde toxicity; 300 mg/kg orally): 0/10; protective activity against the lethal toxicity of acetaldehyde (acetaldehyde toxicity; in words): distinct protective activity against the lethal toxicity of acetaldehyde at lower doses than FTZ, which activity was shown to be more potent than that of 2-aminoethanesulfonic acid; ALT, mean ± S.D. [4, 8]: 944.7 ± 61.7 IU; AST, mean ± S.D. [4, 8]: 327.9 ± 36.6 IU; ALT, mean ± S.D. [4, 9]: 637.2 ± 93.7 IU; AST, mean ± S.D. [4, 9]: 125.7 ± 48.2 IU; ALT, mean ± S.D. ([4]; conc. of test soln. 0.05 mg/dl): 649.1 ± 42.4 IU; AST, mean ± S.D. ([4]; conc. of test soln. 0.05 mg/dl): 68.2 ± 7.5 IU; ALT, mean ± S.D. ([4]; conc. of test soln. 0.1 mg/dl): 525.1 ± 26.0 IU; AST, mean ± S.D. ([4]; conc. of test soln. 0.1 mg/dl): 44.3 ± 11.1 IU; suppressory activity (isolated liver cells) ([4]; in words): suppressory activity equal to that of FTZ but clearly superior to that of 2-aminoethanesulfonic acid alone; Incidence of ulcer ([5]; 50 mg/kg orally): 8/8; Ulcer coefficient (mm) mean ± S.E. ([5]; 50 mg/kg orally): 19.9 ± 4.6 mm; Suppression % [5, 7]: 37.6%; Incidence of ulcer ([5]; 100 mg/kg orally): 8/8; Ulcer coefficient (mm) mean ± S.E. ([5]; 100 mg/kg orally, * p < 0.01): 9.8 ± 2.3 mm; Suppression % ([5]; 100 mg/kg orally, vs Vehicle No. 2): 57.2%; Incidence of ulcer ([5]; 150 mg/kg orally): 8/8; Ulcer coefficient (mm) mean ± S.E. ([5]; 150 mg/kg orally, ** p < 0.01): 7.6 ± 1.4 mm; Suppression % ([5]; 150 mg/kg orally, vs Vehicle No. 3): 78.1%; UD50 (mg/kg) (95% C.L.) ([5]; oral, 30 min before water-soaking constraint): 72.8 mg/kg; ALT, mean ± S.D. [1]: 8899.4 ± 927.9 IU; AST, mean ± S.D. [1]: 7256.9 ± 1464.7 IU; suppressory activity (hepatopathy in mice) [1]: significant suppressory activity equal to that of FTZ; anti-hepatitis, liver function improving and anti-ulcer activity [6]: more markedly potent anti-ulcer activity as well as comparable anti-hepatitis and liver function improving activities
